The values that follow come from patent US8257700B2, “Proteomic analysis of active multiple sclerosis lesions” (The Board of Trustees of the Leland Stanford Junior …, priority 2008, dated 2012).

One series concerns the target T1, PAR-1 (Homo sapiens, UniProt P25116).
T1 sequence (P25116 22-425): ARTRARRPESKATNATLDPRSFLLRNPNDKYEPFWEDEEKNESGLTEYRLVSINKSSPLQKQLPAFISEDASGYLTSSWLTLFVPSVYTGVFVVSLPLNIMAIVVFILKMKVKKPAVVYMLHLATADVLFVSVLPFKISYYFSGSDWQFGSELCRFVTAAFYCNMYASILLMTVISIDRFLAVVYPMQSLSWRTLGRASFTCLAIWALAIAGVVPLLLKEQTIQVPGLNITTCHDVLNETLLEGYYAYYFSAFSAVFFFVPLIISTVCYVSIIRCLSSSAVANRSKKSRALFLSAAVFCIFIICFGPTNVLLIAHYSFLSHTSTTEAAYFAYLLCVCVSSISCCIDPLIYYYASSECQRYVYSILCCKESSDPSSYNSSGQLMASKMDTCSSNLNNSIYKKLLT
The following applies: cited from earlier work.

In the next series the test system is EAE mice. Briefly: EAE induced with PLP139-151 in SJL/J mice, daily clinical score. The series is classed as in vivo, mouse (SJL/J). Particulars: for clinical status (mean clinical score), time of amelioration: recombinant human aPC variants 0.46 mg/kg daily i.v. from maximal paralysis until day 30, vs PBS. On the procedure:
EAE induction, treatment with hirudin, aPC (WT and mutants), proliferation assays, cytokine analysis and quantitative histopathology. Mice were maintained in the Research Animal Facility at Stanford University. EAE was induced in 7-8 week old SJL/J female mice by subcutaneous immunization with 100 μg PLP139-151 in emulsion. For hirudin or aPC treatment, EAE mice (n=10/group) were treated with daily intravenous injection of hirudin (10 mg/kg) or mouse recombinant aPC-WT (0.2 mg/kg) at the peak of disease and compared with PBS treated group. Mice were assessed daily for clinical signs of EAE and scored according to: 0, no clinical disease; 1, tail weakness; 2, hindlimb weakness; 3, complete hindlimb paralysis; 4, hindlimb paralysis and some forelimb weakness; 5, moribund or dead.
Recombinant human aPC-WT and mutants (aPC-L8W and aPC-K193E) were prepared as described by Grinnell et al (2007) Critical Care Medicine (suppl). These aPC variants have the following properties on aPTT and PAR-1 signaling function: aPC-WT: aPTT (relative activity)=1, PAR-1 (relative activity)=1, aPC-L8W: aPTT=1, PAR-1=0.02 and aPC-K193E: aPTT=0.03, PAR-1=1. EAE mice (n=7/group) were treated with daily intravenous injection of recombinant human aPC-WT, aPC-L8W, aPC-K193E (0.46 mg/kg) or PBS (control group) at the time of maximal paralysis and assessed daily until day 30.

The subject of another series is aPTT. Particulars: cited from earlier work; for aPTT (relative activity): relative to aPC-WT.
The test system of series [1] is splenocytes and lymph node cells. Briefly: Cytokine production (ELISA) of splenocytes and lymph node cells from treated EAE mice. Format: cell-based, mouse (SJL/J). On the procedure:
(§1) In vitro immune cell proliferation and cytokine analysis were performed as previously described (Ousman et al. (2007) Nature 448, 474-9). Briefly, splenocytes and lymph node cells harvested from EAE experiments were cultured in flat-bottomed, 96-well plates at a concentration of 0.5×10^6 cells/well in stimulation media (RPMI 1640 supplemented with 2 mM L-glutamine, 1 mM sodium pyruvate, 0.1 mM non-essential amino acids, 100 U/ml^2 Penicillin, 0.1 mg/ml^2 streptomycin, 0.5 μM 2-mercaptoethanol and 10% fetal calf serum) and activated with PLP139-151 peptide (5-20 μg/ml). To determine proliferation rates, cultures were pulsed with (^3H)-Thymidine (1 μCi per well) following 72-hour culture and harvested 18 hours later onto filter paper. The counts per minute (cpm) of incorporated ^3H-Thymidine were read using a beta counter. Cytokine levels (IL-2, IL-4, IL-6, IL-10, IL-12p40, IL-17, IFN-γ, TNF) were measured from the supernatant of cultured cells using anti-mouse OPTEIA ELISA kits (BD Pharmigen).
Background: ELISA stands for enzyme-linked immunosorbent assay.

For a further series, the system named is purified T cells. The experiment in a line: Purified T cell activation with CD3/CD28, cytokine ELISA. The series is classed as cell-based, mouse (SJL/J). The following applies: 30 nM recombinant murine aPC pre-treatment, CD3/CD28 5 μg/ml. The protocol: In vitro Immune cell activation assays and cytokine analysis. T lymphocytes were isolated from pooled splenocytes and lymph node cells from 8 week-old naïve SJL/J mice by negative selection (Pan T cell isolation kit, Miltenyi Biotech). Cells were pre-treated with 30 nM recombinant murine aPC for 15 mins at 37° C. followed by activation with CD3/CD28 (5 μg/ml) coated on 12 well plates. Cells were cultured at 5×10^6 cells/ml concentration in stimulation media. Culture plates were harvested at different time points (15 min-96 hours) and cytokine levels were measured from culture supernatant by ELISA.

For series [2], the system named is primary peritoneal macrophages. Briefly: Peritoneal macrophage activation with LPS, cytokine ELISA. Format: cell-based, mouse (SJL/J). The following applies: 30 nM recombinant murine aPC pre-treatment, LPS 100 ng/ml. The protocol:
Primary peritoneal macrophages were isolated from naïve 8-9 weeks old SJL/J mice following intraperitoneal injection of thioglycollate (BD Diagnostic Systems) and cultured in complete medium (DMEM supplemented with 10% fetal bovine serum, 1 mM sodium pyruvate, […] and 0.1 mg/ml streptomycin). Cells (1×10^6 cells/ml) were treated with 30 nM recombinant murine aPC for 15 minutes, then activated with LPS 100 ng/ml (Sigma), harvested at different time points (15 min-72 hours), and cytokine levels were measured.

The next series has as its system NF-κB signalling (IκB-α). Briefly: Western blot of IκB-α in T cells (NF-κB activation). Format: cell-based, mouse (SJL/J). The following applies: T cells treated with murine aPC, cell activation assay. On the procedure: Western blot analysis. For NF-κB activation, total cell lysate from purified T cells treated with aPC were analyzed by SDS-PAGE, transferred to PVDF membrane, probed with antibodies against IκB-α, and β-actin and the signal was visualized by enhanced chemiluminescence.
Background: A western blot detects proteins with antibodies after separation by electrophoresis.

Series [3] deals with splenocytes and lymph node cells. The experiment in a line: In vitro proliferation (3H-thymidine) of splenocytes and lymph node cells from treated EAE mice, activated with PLP peptide. The series is classed as cell-based, mouse (SJL/J). On the procedure:
as §1

For another series, the system named is primary astrocytes. The experiment in a line: Primary astrocyte activation with LPS, cytokine ELISA. Format: cell-based, mouse (SJL/J). The following applies: 30 nM recombinant murine aPC pre-treatment, LPS 100 ng/ml. On the procedure:
Astrocyte culture. Astrocytes were cultured from brain of one-day-old SJL/J pups as described previously. Briefly, the cerebral cortices from pups were minced, cells were disrupted by passing through a filter and cultured in complete DMEM. Purified astrocytes (50-80% confluent) were treated with 30 nM recombinant murine aPC for 15 minutes and activated with 100 ng/ml LPS (Sigma). Cells were harvested at 4, 24, 48 and 72-hours, and supernatant were analyzed by ELISA for cytokine production.

The test system of series [4] is brain and spinal cord of EAE mice. Briefly: Quantitative histopathology: inflammatory foci in brain and spinal cord of EAE mice. Format: in vivo, mouse (SJL/J). The protocol:
For histopathological analysis, brains and spinal cord of EAE mice were fixed in 10% formaldehyde. […] paraffin sections were stained with LFB and H&E and the number of inflammatory foci within the brain and spinal cord were quantified by a neuropathologist who was blinded to the treatment and clinical parameters of the mice.

A short description of series [5]: Anti-hirudin antibodies in serum of treated EAE mice. The series is classed as in vivo, mouse. The following applies: EAE mice treated with hirudin.
For another series, the system named is rheumatoid arthritis. Particulars: cited from earlier work.
The test system of series [6] is MS relapses and active EAE. Particulars: during MS relapses and active EAE; cited from earlier work.
Where [7] appears, read: cells from aPC-treated vs PBS-treated mice.
[8] abbreviates: cells from hirudin-treated vs vehicle-treated mice.
The mark [9] stands for this setting: hirudin 10 mg/kg daily i.v. from peak of disease.

As to “aPC-L8W: recombinant human aPC mutant; retains anticoagulant properties but lacks PAR-1 signalling, defective EPCR interaction at L8”, the “PAR-1 signalling (in words)” value with PAR-1 is on record as “lacks PAR-1 signalling”. Moreover, the “clinical status (mean clinical score), time of amelioration” value (“clinical status (mean clinical score)” for short) in the series with EAE mice is given as “significant amelioration early in the disease course (days 20-25)”. Further, in the series on aPTT, the “anticoagulant properties (in words)” value is given as “retains anticoagulant properties” and the “aPTT (relative activity)” value was 1.
As to “aPC-K193E: recombinant human aPC mutant; mainly participates in PAR-1 signalling and lacks anticoagulant activities”, the “PAR-1 signalling (in words)” value with PAR-1 is “mainly participates in PAR-1 signalling”. The “clinical status (mean clinical score)” value with EAE mice is reported as “significant amelioration early in the disease course (days 20-25)”. Also, in the series on aPTT, the “anticoagulant properties (in words)” value is on record as “lacks anticoagulant activities” and the “aPTT (relative activity)” value was 0.03.
Regarding “aPC: recombinant murine activated protein C, provided by Lilly Research Laboratories”, the “Th1 and Th17 cytokines” value in [1] (setting [7]) is given as “inhibition”. Besides, the IL17 levels result in the series with purified T cells is “low levels”. The IL6 production entry (in [2]; in the series on primary astrocytes) was “less” throughout. The IL17 production result (in series [2]; in the series with primary astrocytes) was “less” throughout. Besides, the relapse rates entry in the series on EAE mice (recombinant murine aPC 0.2 mg/kg) is “no effect”. The “disease severity (mean clinical score)” value with EAE mice (recombinant murine aPC 0.2 mg/kg daily i.v. from peak of disease vs PBS) is listed as “significant amelioration of disease severity”. The IκB breakdown result in the series on NF-κB signalling (IκB-α) is “less IκB breakdown”. Moreover, the “immune cell proliferation in splenocytes and lymph node cells” value in series [3] (setting [7]) was “decreased immune cell proliferation”. Further, the “inflammatory foci in the CNS tissue” value in series [4] (aPC-treated vs PBS) is listed as “fewer inflammatory foci”.
Turning to “hirudin: thrombin inhibitor hirudin (Refludan, recombinant lepirudin, Berlex)”, in [1] (setting [8]), the IL4 production entry was “no differences”, the IL-6 production result is given as “suppression”, the IL-10 production entry is given as “no differences” and the IL-12 production entry is listed as “no differences”. Further, in [1] (setting [8]), the IL-17 production entry is “suppression”, the “interferon-γ (IFN-γ) production” value is listed as “no differences” and the “tumor necrosis factor (TNF) production” value is given as “suppression”. Further, the “anti-hirudin antibodies in serum” value in series [5] is on record as “presence of anti-hirudin antibodies”. Further, in the series on EAE mice (setting [9]), the disease course result is listed as “no effect” and the relapse rates entry is recorded as “no effect”. Further, the “disease severity (mean clinical score)” value in the series on EAE mice (hirudin 10 mg/kg daily i.v. from peak of disease vs PBS) is “dramatic improvement of disease severity”. Moreover, the “time up to which amelioration of EAE was observed” value in the series on EAE mice (hirudin treatment) is at most 35 days. The immune cell proliferation result in series [3] (cells from hirudin-treated vs PBS-treated mice, PLP activated) is “decreased immune cell proliferation”. In series [4] (hirudin-treated vs PBS), the “inflammatory foci in brains and spinal cords” value is listed as “fewer inflammatory foci”.
Regarding “aPC-WT: recombinant human activated protein C wild type”, the “clinical status (mean clinical score)” value in the series with EAE mice is on record as “improvement in the latter part of disease course (days 25-30)”.
With `CN(Cc1cnc2nc(N)nc(N)c2n1)c1ccc(C(=O)N[C@@H](CCC(=O)O)C(=O)O)cc1` [MTX, Methotrexate], in the series on rheumatoid arthritis, the “patients having some response” value is 70%. The onset of action in the series with rheumatoid arthritis (patients) was 4-6 weeks.
Turning to Heparin, in [6], the symptoms entry is given as “improve symptoms”.
